In article PMC9468151, “Identification of a binding site on soluble RANKL that can be targeted to inhibit soluble RANK-RANKL interactions and treat osteoporosis” (Nature Communications, 2022):
Where “and” joins values, the source holds several entries; their conditions need not be identical. Equal values may be shown once.

Columns and labels:
[1] = system: sRANKL induced osteoclast differentiation; experiment: In vitro anti-osteoclastogenesis activity determination (TRAP staining); type: cell-based, mouse; parameters: key to inhibition of osteoclastogenesis, dose-response (fig. S2a): % inhibition = 100 − (treated−unstimulated)/(untreated−unstimulated)×100; conditions: for IC50: 120 h, BMMs, M-CSF + 100 ng/mL sRANKL, 5 days, TRAP staining, read-out: OC IC50 (anti-osteoclastogenesis activity)
Procedure, shortened: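 Mouse bone-marrow macrophages in 10 ng/mL M-CSF were stimulated with 100 ng/mL sRANKL plus compound at 9 concentrations, refreshed every 2 days, triplicate wells. After 5 days TRAP-stained osteoclasts were counted; inhibition normalised to untreated and unstimulated controls, IC50 by nonlinear regression.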

[2] = Pharmacokinetic studies in rat; type: in vivo; parameters: unit not given here
sRANKL = target: T1, sRANKL (Rattus norvegicus, UniProt Q9ESE2, D175N); experiment: Surface plasmon resonance (SPR) assay; type: binding; conditions: immobilized sRANKL, 25 °C
T1 construct: (1) sRANKL (rat 159-318 aa); His6-sumo (N, cleaved yes); made in house; host or cells: Escherichia coli BL21 (DE3)
T1 sequence (Q9ESE2 159-318 D175N): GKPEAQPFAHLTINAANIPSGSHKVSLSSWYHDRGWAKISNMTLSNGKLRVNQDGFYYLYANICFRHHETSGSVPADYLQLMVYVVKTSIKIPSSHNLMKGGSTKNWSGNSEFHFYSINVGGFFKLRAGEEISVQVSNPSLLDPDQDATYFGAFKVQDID
Method: A ProteOn XPR36TM SPR instrument (BioRad Hercules, CA) was used for carrying out SPR assays. sRANKL protein in PBS buffer, pH 7.4, was diluted to 20 nM in 10 mM sodium acetate buffer, pH 5.5 and immobilized in parallelflow channels of a the EDAC/Sulfo-NHS activated surface of a GLH biosensor chip (Bio-Rad) with an amine coupling kit (Bio-Rad). The surface was blocked with 1 M ethanolamine. The final immobilization level for sRANKL was approximately 14,000 RU. A blank immobilization channel in the same GLH biosensor chip was also activated with EDAC/Sulfo-NHS and blocked with 1 M ethanolamine to use as a reference.
Biosensor binding experiments were conducted in filtered and degassed running buffer (PBS containing 0.005% Tween-20, pH 7.4) at 25 °C. Compounds was dissolved in 100% DMSO in appropriate different series concentrations of stock solutions. Before detecting, compounds were diluted in six or five concentrations with running buffer and ensured that the content of DMSO contained in each detected concentration was consistent. Compounds in different concentrations were injected simultaneously at a flow rate at […] for 180 s and 120 s for the association phase, followed by 180 s for the disassociation. Following the compound injection, the chip surface was regenerated with 40 s pulses of 0.85% H3PO4 and running buffer.
ProtedOn Manager 2.0. was used for data analysis. Each set of sensorgrams was globally analyzed using the 1:1 Langmuir binding model to obtain the kinetic rate constants (Kon and Koff). Global kinetic rate constants (ka and kd) were derived for each reaction, and the equilibrium dissociation constant, KD, was calculated using the equation KD = kd/ka.

[3] = Pharmacokinetic studies in rat; type: in vivo; parameters: plasma concentration-time (fig. S2c): unit not given here; conditions: for Cmax / half-life: Sprague-Dawley; for Cmax / half-life / plasma concentration-time (fig. S2c): rat; for Cmax / half-life / AUC: male SD rats, oral 10 mg/kg, plasma
Method: 28-week-old and 280 g∼370 g weight male SD (Sprague Dawley) rats were used for pharmacokinetic (PK) studies. Rats were weighed and divided into groups of 3 rats per group. Compounds S3, S3-05 and S3-15 were dissolved in deionized water and made the concentration to 1 mg/mL. Then rats were oral gavage administrated at the doses of 10 mg/kg for each compound. Blood samples were collected in tubes with heparin sodium at 5 min, 10 min, 20 min, 30 min, 40 min, 60 min, 2 h, 3 h, 4 h, 5.5 h, 7 h, 9 h, 12 h, 16 h, 24 h, 32 h, 40 h, 48 h, time points, with three […] per time point for each compound. Blood samples were centrifuged 2100 × g for 10 min at 4 °C, then the plasma was transferred to a clean microfuge tube. Plasma samples were stored at −80 °C. Additionally, ten rats were used as a control and not treated with compound. Plasma from control mice was used to calibrate LC-MS and correct for matrix effects. Drug concentration in plasma was quantified by LC-MS-based methods. Pharmacokinetic parameters were estimated using Phoenix WinNonlin (version 6.3) (Certara USA, Princeton, New Jersey) from mean plasma concentration-time profiles.

[4] = Mus musculus, Osteoclast, conc. 0.0843226 μM, three replicate columns, read-out: inhibition of osteoclastogenesis, dose-response (fig. S2a)
[5] = Mus musculus, Osteoclast, conc. 0.278265 μM, three replicate columns, read-out: inhibition of osteoclastogenesis, dose-response (fig. S2a)
[6] = Mus musculus, Osteoclast, conc. 0.918274 μM, three replicate columns, read-out: inhibition of osteoclastogenesis, dose-response (fig. S2a)
[7] = Mus musculus, Osteoclast, conc. 3.0303 μM, three replicate columns, read-out: inhibition of osteoclastogenesis, dose-response (fig. S2a)
[8] = Mus musculus, Osteoclast, conc. 10 μM, three replicate columns, read-out: inhibition of osteoclastogenesis, dose-response (fig. S2a)
[9] = Mus musculus, Osteoclast, conc. 33 μM, three replicate columns, read-out: inhibition of osteoclastogenesis, dose-response (fig. S2a)
[10] = conc. 0.0023464 μM, three replicate columns
[11] = conc. 0.00774313 μM, three replicate columns
[12] = conc. 0.0255523 μM, three replicate columns
[13] = conc. 0.0843226 μM, three replicate columns
[14] = conc. 0.278265 μM, three replicate columns
[15] = conc. 0.918274 μM, three replicate columns
[16] = conc. 3.0303 μM, three replicate columns

Compound	IC50 ([1]; Mus musculus, Osteoclast)	inhibition at 0.0843226 µM [1, 4]	inhibition at 0.278265 µM [1, 5]	inhibition at 0.918274 µM [1, 6]	inhibition at 3.0303 µM [1, 7]	inhibition at 10 µM [1, 8]	inhibition at 33 µM [1, 9]	inhibition of osteoclastogenesis, dose-response (fig. S2a) [1, 10]	inhibition of osteoclastogenesis, dose-response (fig. S2a) [1, 11]	inhibition of osteoclastogenesis, dose-response (fig. S2a) [1, 12]	inhibition of osteoclastogenesis, dose-response (fig. S2a) [1, 13]	inhibition of osteoclastogenesis, dose-response (fig. S2a) [1, 14]	inhibition of osteoclastogenesis, dose-response (fig. S2a) [1, 15]	inhibition of osteoclastogenesis, dose-response (fig. S2a) [1, 16]	plasma concentration-time (fig. S2c) ([2]; time 28 h)	plasma concentration-time (fig. S2c) ([2]; time 36 h)	Kd (sRANKL)	Cmax [3]	half-life [3]	AUC [3]	further results
CCOC(=O)c1sc(NC(=O)/C(=N/Nc2ccc(O)cc2C(=O)O)C(C)=O)nc1C [S3-05]	0.41 µM	24.5%	45.8%	58.5%	78.9%	86.2%	98.5%	5.216 and -0.5015 and 0.1003	7.021 and 8.826	18.7563 and 13.6409	23.8716	51.2538 and 38.6159	65.3962 and 65.0953	74.4233 and 77.4323	0.0028 and 0.0125 and 0.0083	0.0011 and 0.0231 and 0.0066	23.6 µM	60 ± 10 ng/mL	10.6 ± 2.31 h	0.38± 0.23 hr*ug/m	inhibition at 0.00774313 µM ([1]; Mus musculus, Osteoclast, conc. 0.00774313 μM, three replicate columns, read-out: inhibition of osteoclastogenesis, dose-response (fig. S2a)): 10.9%; inhibition at 0.0255523 µM ([1]; Mus musculus, Osteoclast, conc. 0.0255523 μM, three replicate columns, read-out: inhibition of osteoclastogenesis, dose-response (fig. S2a)): 21.5%; inhibition of osteoclastogenesis, dose-response (fig. S2a) ([1]; conc. 10 μM, three replicate columns): 87.0612 and 88.2648; inhibition of osteoclastogenesis, dose-response (fig. S2a) ([1]; conc. 33 μM, three replicate columns): 99.3982 and 99.6991; plasma concentration-time (fig. S2c) ([3]; time 0.083 h): 0.0241 and 0.0344 and 0.0141; plasma concentration-time (fig. S2c) ([3]; time 0.167 h): 0.091 and 0.0772 and 0.0497; plasma concentration-time (fig. S2c) ([3]; time 0.333 h): 0.07 and 0.0598 and 0.0834; plasma concentration-time (fig. S2c) ([3]; time 0.5 h): 0.063 and 0.055 and 0.0901; plasma concentration-time (fig. S2c) ([3]; time 0.667 h): 0.057 and 0.0597 and 0.0836; plasma concentration-time (fig. S2c) ([3]; time 1 h): 0.0458 and 0.0351 and 0.0779; plasma concentration-time (fig. S2c) ([3]; time 2 h): 0.0356 and 0.0153 and 0.0386; plasma concentration-time (fig. S2c) ([3]; time 3 h): 0.0376 and 0.0287 and 0.0316; plasma concentration-time (fig. S2c) ([3]; time 4 h): 0.0238 and 0.027 and 0.0298; plasma concentration-time (fig. S2c) ([3]; time 5.5 h): 0.0163 and 0.0195 and 0.0418; plasma concentration-time (fig. S2c) ([3]; time 7 h): 0.0115 and 0.0105 and 0.0613; plasma concentration-time (fig. S2c) ([3]; time 9 h): 0.0058 and 0.0107 and 0.0452; plasma concentration-time (fig. S2c) ([3]; time 12 h): 0.0058 and 0.0222 and 0.0307; plasma concentration-time (fig. S2c) ([3]; time 16 h): 0.0077 and 0 and 0.0286; plasma concentration-time (fig. S2c) ([3]; time 24 h): 0.0024 and 0.0688 and 0.0143; plasma concentration-time (fig. S2c) ([3]; time 48 h): 0.0008 and 0.0021 and 0.0027
CCOC(=O)c1sc(NC(=O)/C(=N/Nc2ccccc2C(=O)O)C(C)=O)nc1C [S3, (E)-2-(2-(1-((5-(ethoxycarbonyl)-4-methylthiazol-2-yl)amino)-1,3-dioxobutan-2-ylidene) hydrazinyl) benzoic acid]	0.096 µM	55.6%	62.8%	74.4%	82.5%	95.5%	100%	14.7982 and 23.3184 and -0.4484	4.4843 and 2.691 and 14.7982	42.1525 and 52.4664 and 21.0762	52.4664 and 43.4978	63.2287 and 72.1973	71.7489 and 80.2691	79.8206 and 91.0314	0.7405 and 0.07032 and 0.1222	0.6382 and 0.07762 and 0.02166	34.8 µM	1430 ± 650 ng/mL	7.51 h	5.67± 3.48 hr*ug/m	plasma concentration-time (fig. S2c) ([3]; time 0.083 h): 1.351 and 0.4444 and 0.2871; plasma concentration-time (fig. S2c) ([3]; time 0.167 h): 2.528 and 0.9092 and 0.8091; plasma concentration-time (fig. S2c) ([3]; time 0.333 h): 3.09 and 1.211 and 2.048; plasma concentration-time (fig. S2c) ([3]; time 0.5 h): 3.054 and 1.206 and 2.481; plasma concentration-time (fig. S2c) ([3]; time 0.667 h): 2.576 and 1.333 and 1.703; plasma concentration-time (fig. S2c) ([3]; time 1 h): 1.712 and 1.674 and 1.242; plasma concentration-time (fig. S2c) ([3]; time 2 h): 1.693 and 1.071 and 0.7425; plasma concentration-time (fig. S2c) ([3]; time 3 h): 1.218 and 0.6709 and 0.4108; plasma concentration-time (fig. S2c) ([3]; time 4 h): 1.2291 and 0.8619 and 0.3316; plasma concentration-time (fig. S2c) ([3]; time 5.5 h): 0.4965 and 0.6324 and 0.178; plasma concentration-time (fig. S2c) ([3]; time 7 h): 0.6171 and 0.2252 and 0.1625; plasma concentration-time (fig. S2c) ([3]; time 9 h): 0.8173 and 0.544; plasma concentration-time (fig. S2c) ([3]; time 12 h): 0.5875 and 0.2812 and 0.1945; plasma concentration-time (fig. S2c) ([3]; time 16 h): 1.063 and 0.3858 and 0.544; plasma concentration-time (fig. S2c) ([3]; time 24 h): 1.148 and 0.1582 and 0.2706; plasma concentration-time (fig. S2c) ([3]; time 48 h): 0.06761 and 0.02244 and 0.00409
